The target of data set [1] is T1, MdfA (Escherichia coli, UniProt P0AEY8). The settings on record: several pH values (pH 6 to 8.5).
In data set [2] the target is T1, MdfA. Kind of data set: substrate-induced proton release from purified MdfA. It is filed as binding. The following applies: unbuffered solution, 2 µM MdfA, 500 µM EtBr.
The target of another data set is Asp34 (UniProt position 34, TYIGNDMIQPG). Kind of data set: fluorescence. The settings on record: Detergent-solubilised, folded; competition between TPP and protons.

T1 sequence (P0AEY8 whole entry): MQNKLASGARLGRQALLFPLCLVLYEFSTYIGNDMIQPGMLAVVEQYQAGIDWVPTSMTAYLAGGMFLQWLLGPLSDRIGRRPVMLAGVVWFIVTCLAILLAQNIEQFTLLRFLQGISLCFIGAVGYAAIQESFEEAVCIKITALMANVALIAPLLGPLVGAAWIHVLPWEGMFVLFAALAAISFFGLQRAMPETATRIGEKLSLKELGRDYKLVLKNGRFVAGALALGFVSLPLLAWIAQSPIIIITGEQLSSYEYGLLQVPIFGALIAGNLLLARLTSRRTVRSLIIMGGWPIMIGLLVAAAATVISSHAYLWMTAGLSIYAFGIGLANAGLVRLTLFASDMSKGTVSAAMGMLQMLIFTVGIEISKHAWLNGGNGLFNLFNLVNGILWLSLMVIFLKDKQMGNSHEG

`c1ccc([P+](c2ccccc2)(c2ccccc2)c2ccccc2)cc1` [TPP]: the dissociation constant entry on MdfA [1] is reported as “the affinity of purified, detergent-solubilized MdfA for its substrate tetraphenylphosphonium (TPP) was measured”.
Regarding `CC[n+]1c(-c2ccccc2)c2cc(N)ccc2c2ccc(N)cc21` [ethidium bromide], at MdfA [2], the “substrate-induced proton release from purified MdfA (pH electrode)” value was “adding TPP or EtBr caused rapid acidification”.
In the data set with Asp34, “Multidrug transporter MdfA (wild type, His6-tagged) (Escherichia coli)” gave a pKa of 6.84 ± 0.06.
